In ChEMBL document CHEMBL3301361, “Experimental in vitro DMPK and physicochemical data on a set of publicly disclosed compounds”:

Legend:
[1] = in vitro; details: human
[2] = physchem; details: octan-1-ol/water

Compound: CCc1nc2c(N)nc3ccccc3c2n1Cc1ccccc1
- microsomal CLint ([1]; liver microsomes): < 3 µL/min/mg
- logD ([2]; pH 7.4, LogD7.4): 3.29

Compound: NS(=O)(=O)c1ccc(Nc2nccc(-c3ccccc3)n2)cc1
- microsomal CLint ([1]; liver microsomes): < 3 µL/min/mg
- logD ([2]; pH 7.4, LogD7.4): 2.86

Compound: CCCCc1nc2c(N)nc3ccccc3c2n1Cc1ccccc1
- microsomal CLint ([1]; microsomes): 6 µL/min/mg
- logD ([2]; pH 7.4, LogD7.4): 4.17

Compound: CN1CCN(C(=O)c2cc3cc(Br)ccc3[nH]2)CC1
- microsomal CLint ([1]; liver microsomes): 20.5 µL/min/mg
- logD ([2]; pH 7.4, LogD7.4): 2.79

Compound: Cc1ccc(C(=O)Nc2ccon2)cc1NC(=O)c1cnn(-c2ccccc2F)c1N
- microsomal CLint ([1]; liver microsomes): < 3 µL/min/mg
- logD ([2]; pH 7.4, LogD7.4): 2.6

Compound: Cc1ccc2c(c1)C1(CCN(CCc3nc(-c4ccccc4)oc3C)CC1)OC(=O)N2
- microsomal CLint ([1]; liver microsomes): 79.4 µL/min/mg
- logD ([2]; pH 7.4): 4.2

Compound: CC(NCC(O)c1ccc([N+](=O)[O-])cc1)C12CC3CC(CC(C3)C1)C2 (centres undefined)
- microsomal CLint ([1]; liver microsomes): 30.5 µL/min/mg
- logD ([2]; pH 7.4, LogD7.4): 3.53

Compound: CC(C)C[C@H](NC(=O)N1CCOCC1)C(=O)NCC#N
- microsomal CLint ([1]; liver microsomes): < 3 µL/min/mg
- logD ([2]; pH 7.4, LogD7.4): 0.08

Compound: C(#Cc1n[nH]c2ccccc12)c1ccccc1
- microsomal CLint ([1]; microsomes): 35 µL/min/mg
- logD ([2]; pH 7.4, LogD7.4): 4.31

Compound: c1ccc(Sc2ccc3ccccc3n2)cc1
- microsomal CLint ([1]; microsomes): 61 µL/min/mg
- logD ([2]; pH 7.4, LogD7.4): 3.92

Compound: CC1CN(S(=O)(=O)c2ccccc2)CCN1Cc1cc(Cl)ccc1OCC(=O)O (centres undefined)
- microsomal CLint ([1]; microsomes): < 3 µL/min/mg
- logD ([2]; pH 7.4, LogD7.4): 0.69

Compound: C[C@H]1CN(Cc2cc(Cl)ccc2OCC(=O)O)CCN1C(=O)Cc1cccc(Cl)c1
- microsomal CLint ([1]; microsomes): < 3 µL/min/mg
- logD ([2]; pH 7.4): 0.78

Compound: C[C@H]1CN(Cc2cc(Cl)ccc2OC(C)(C)C(=O)O)CCN1S(=O)(=O)c1ccccc1
- microsomal CLint ([1]; microsomes): < 3 µL/min/mg
- logD ([2]; pH 7.4, LogD7.4): 0.54

Compound: Cc1ccc(C#N)cc1-c1cc(C(F)(F)F)ccc1OCC(=O)O
- microsomal CLint ([1]; microsomes): < 3 µL/min/mg
- logD ([2]; pH 7.4, LogD7.4): 0.15

Compound: N#Cc1cc(Cl)ccc1O[C@H](CCN)c1ccccc1
- microsomal CLint ([1]; liver microsomes): < 3 µL/min/mg
- logD ([2]; pH 7.4, LogD7.4): 0.91

Compound: C=CCN(C(=O)Cc1ccc(S(C)(=O)=O)cc1)C1CCN(CCC(c2ccccc2)c2ccccc2)CC1
- microsomal CLint ([1]; liver microsomes): 10 µL/min/mg
- logD ([2]; pH 7.4, LogD7.4): 3.1

Compound: CCc1ccc(CCNCCCSCCNC[C@H](O)c2ccc(O)c3[nH]c(=O)sc23)cc1
- microsomal CLint ([1]; liver microsomes): 68 µL/min/mg
- logD ([2]; pH 7.4, LogD7.4): 0.86

Compound: COc1ccc(C=NN=Cc2ccc(OC)c(OC)c2)cc1OC
- microsomal CLint ([1]; liver microsomes): 19 µL/min/mg
- logD ([2]; pH 7.4, LogD7.4): 3.38

Compound: Cc1c(Sc2ccc(Cl)cc2)c2cc(Cl)ccc2n1CC(=O)O
- microsomal CLint ([1]; liver microsomes): < 3 µL/min/mg
- logD ([2]; pH 7.4, LogD7.4): 2.87

Compound: Cc1c(Sc2ccc(Cl)cc2)c2cc(Cl)ccc2n1C(C)C(=O)O (centres undefined)
- microsomal CLint ([1]; microsomes): < 3 µL/min/mg
- logD ([2]; pH 7.4, LogD7.4): 3.56

Compound: Cc1c(Sc2ccc(Cl)cc2)c2ccc(S(C)(=O)=O)cc2n1CC(=O)O
- microsomal CLint ([1]; microsomes): < 3 µL/min/mg
- logD ([2]; pH 7.4, LogD7.4): 0.79

Compound: CNC(=O)c1cccc2c1c(Sc1ccc(Cl)cc1)c(C)n2CC(=O)O
- microsomal CLint ([1]; liver microsomes): < 3 µL/min/mg
- logD ([2]; pH 7.4, LogD7.4): -0.89

Compound: Cc1ccc2c(c1)c([S+]([O-])c1ccc(Cl)cc1)c(C)n2CC(=O)O (centres undefined)
- microsomal CLint ([1]; liver microsomes): 3 µL/min/mg
- logD ([2]; pH 7.4, LogD7.4): 0.05

Compound: N#Cc1ccc(Nc2nccc(NC3CC3)n2)cc1
- microsomal CLint ([1]; liver microsomes): 45 µL/min/mg
- logD ([2]; pH 7.4, LogD7.4): 3.01

Compound: O=C(CCc1ccccc1O)Nc1ccccc1
- microsomal CLint ([1]; liver microsomes): 30 µL/min/mg
- logD ([2]; pH 7.4, LogD7.4): 2.71

Compound: Nc1nc(Nc2cccc(Br)c2)c2[nH]cnc2n1
- microsomal CLint ([1]; microsomes): 16 µL/min/mg
- logD ([2]; pH 7.4, LogD7.4): 3.04

Compound: Nc1nc(Nc2ccc(F)c(Cl)c2)c2nc[nH]c2n1
- microsomal CLint ([1]; liver microsomes): 15 µL/min/mg
- logD ([2]; pH 7.4, LogD7.4): 2.75

Compound: COc1ccccc1CNCc1ccc(CCNC[C@H](O)c2ccc(O)c3[nH]c(=O)sc23)cc1
- microsomal CLint ([1]; microsomes): 22 µL/min/mg
- logD ([2]; pH 7.4, LogD7.4): 0.15

Compound: O=C(O)CSCC(=O)Nc1nc(-c2ccc(F)cc2)cs1
- microsomal CLint ([1]; liver microsomes): < 3 µL/min/mg
- logD ([2]; pH 7.4, LogD7.4): -0.2

Compound: COc1ccc(-c2ccnc(N)n2)cc1
- microsomal CLint ([1]; liver microsomes): 41 µL/min/mg
- logD ([2]; pH 7.4, LogD7.4): 2.08

Compound: Cc1ccc(C(=O)NC2CCC2)cc1-n1cnc2ccc(N3CCN(C)CC3)cc2c1=O
- microsomal CLint ([1]; liver microsomes): 5 µL/min/mg
- logD ([2]; pH 7.4, LogD7.4): 2.25

Compound: Nc1c(C(=O)c2cccc(OC[C@H](O)CO)c2)cnn1-c1ccc(F)cc1
- microsomal CLint ([1]; microsomes): < 3 µL/min/mg
- logD ([2]; pH 7.4, LogD7.4): 1.94

Compound: O=C(Nc1ccc(S(=O)(=O)N2CCOCC2)cc1)c1cc(Cl)ccc1NS(=O)(=O)c1ccc(Cl)s1
- microsomal CLint ([1]; liver microsomes): < 3 µL/min/mg
- logD ([2]; pH 7.4, LogD7.4): 3.02

Compound: COc1cccc2c(-c3c(C)n(CC(=O)O)c4ccc(C)cc34)ccnc12
- microsomal CLint ([1]; liver microsomes): 5 µL/min/mg
- logD ([2]; pH 7.4, LogD7.4): 0.49

Compound: Cc1ccc2c(c1)c(-c1ccnc3c(C#N)cccc13)c(C)n2CC(=O)O
- microsomal CLint ([1]; liver microsomes): < 3 µL/min/mg
- logD ([2]; pH 7.4, LogD7.4): 0.52

Compound: Cc1c(OC2CCN(CC3CCN([C@@H](Cc4ccc(F)cc4)C(=O)O)CC3)CC2)ccc(C#N)c1Cl
- microsomal CLint ([1]; microsomes): 5.5 µL/min/mg

Compound: O=C(O)C(c1ccccc1)N1CCCC(CN2CCC(Oc3ccc(Cl)c(Cl)c3)CC2)C1 (centres undefined)
- microsomal CLint ([1]; liver microsomes): < 3 µL/min/mg
- logD ([2]; pH 7.4, LogD7.4): 2.6

Compound: O=C(O)[C@@H](c1ccccc1)N1CCC(CN2CCC(Oc3ccc(Cl)c(Cl)c3)CC2)CC1
- microsomal CLint ([1]; microsomes): < 3 µL/min/mg
- logD ([2]; pH 7.4, LogD7.4): 2.14

Compound: COc1ccc(C(=O)NCCN2CCN(Cc3ccc(Cl)c(Cl)c3)CC2)cc1Cl
- microsomal CLint ([1]; microsomes): 50.5 µL/min/mg
- logD ([2]; pH 7.4, LogD7.4): 3.74

Compound: O=C(NS(=O)(=O)c1cccc(Cl)c1)N1CCC(N2CCC(Oc3ccc(Cl)c(Cl)c3)CC2)CC1
- microsomal CLint ([1]; liver microsomes): 6 µL/min/mg
- logD ([2]; pH 7.4, LogD7.4): 2.62
